Measurements published in US11235043B2, “Vaccines against antigens involved in therapy resistance and methods of using same” (Duke University, priority 2012, dated 2022).

Test system: 4T1-HER2 expressing tumors
Assay: Survivin expression in the mouse 4T1-HER2 tumor model
Assay type: in vivo

SMILES: CS(=O)(=O)CCNCc1ccc(-c2ccc3ncnc(Nc4ccc(OCc5cccc(F)c5)c(Cl)c4)c3c2)o1 [lapatinib]
- survivin expression: no change in survivin expression
